Test results: ChEMBL document CHEMBL4819038, “Structure based design and synthesis of novel Toll-like Receptor 2 (TLR 2) lipid antagonists” (Bioorg Med Chem Lett, 2021)

How the values were obtained:
Toll-like receptor 2 [1] = target: T1, Toll-like receptor 2 (Homo sapiens, UniProt O60603); assay: Antagonist activity at human TLR2 expressed in HEK-Blue cells assessed as inhibition of Pam2CSK4-induced TLR2/TLR6 activation by measuring decrease in NFkappaB activation pretreated for 2 hrs followed by incubation with agonist for 18 hrs by SEAP assay; type: cell-based, HEK-Blue hTLR2
T1 sequence (O60603 whole entry): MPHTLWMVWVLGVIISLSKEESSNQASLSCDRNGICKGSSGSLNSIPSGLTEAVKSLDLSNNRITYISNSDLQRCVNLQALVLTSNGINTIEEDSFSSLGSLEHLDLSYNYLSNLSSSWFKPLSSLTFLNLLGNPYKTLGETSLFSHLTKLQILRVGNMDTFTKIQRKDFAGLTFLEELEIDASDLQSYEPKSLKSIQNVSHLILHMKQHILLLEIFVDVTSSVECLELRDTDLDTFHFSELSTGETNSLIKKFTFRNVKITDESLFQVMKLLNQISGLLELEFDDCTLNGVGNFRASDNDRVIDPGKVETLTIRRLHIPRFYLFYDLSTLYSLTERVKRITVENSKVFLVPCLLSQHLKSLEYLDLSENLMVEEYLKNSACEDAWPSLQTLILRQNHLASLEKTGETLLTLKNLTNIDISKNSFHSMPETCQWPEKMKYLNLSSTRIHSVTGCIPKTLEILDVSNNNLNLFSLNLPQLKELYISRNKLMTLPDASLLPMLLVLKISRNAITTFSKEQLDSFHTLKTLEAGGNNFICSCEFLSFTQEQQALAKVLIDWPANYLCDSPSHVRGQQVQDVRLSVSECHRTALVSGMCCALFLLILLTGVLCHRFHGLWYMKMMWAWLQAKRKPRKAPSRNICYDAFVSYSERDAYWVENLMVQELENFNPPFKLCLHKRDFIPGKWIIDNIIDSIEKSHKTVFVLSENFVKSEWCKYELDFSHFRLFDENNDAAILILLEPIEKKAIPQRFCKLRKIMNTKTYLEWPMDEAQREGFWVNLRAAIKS

Toll-like receptor 2 [2] = target: T1, Toll-like receptor 2; assay: Antagonist activity at human TLR2 expressed in HEK-Blue cells assessed as inhibition of Pam3CSK4-induced TLR2/TLR1 activation by measuring decrease in NFkappaB activation pretreated for 2 hrs followed by incubation with agonist for 18 hrs by SEAP assay; type: cell-based, HEK-Blue hTLR2
[3] = Stability of the compound in simulated gastric fluid; type: ADME; conditions: simulated gi fluid
[4] = Stability of the compound in PBS buffer/EtOH; type: physicochemical

Row | SMILES | IC50 (Toll-like receptor 2 [1]) | IC50 (Toll-like receptor 2 [2]) | Stabilty [3] | Stabilty [4]
1 | CCCCCCCCCCCCCCOCC(CNC(=O)[C@@H](CCCCN)NC(=O)OCc1ccccc1)OCCCCCCCCCCCCCC (some centres not stated) | > 30 µM | 2.3 µM | – | –
2 | CCCCCCCCCCCCCCOCC(CNC(=O)CC[C@H](NC(=O)OCC1c2ccccc2-c2ccccc21)C(=O)O)OCCCCCCCCCCCCCC (some centres not stated) | 13.3 µM | 8.7 µM | – | –
3 | CCCCCCCCCCCCCCOCC(CNC(=O)c1cccc(C2CCNCC2)c1)OCCCCCCCCCCCCCC.Cl (configuration not stated) | – | – | > 1 h | > 1 h
4 | CCCCCCCCCCCCCCOCC(CNC(=O)[C@H]1CCCN1)OCCCCCCCCCCCCCC (some centres not stated) | > 30 µM | 14.3 µM | – | –
5 | CCCCCCCCCCCCCCOCC(CNC(=O)[C@@H](CCCCN)NCc1ccccc1)OCCCCCCCCCCCCCC.Cl (some centres not stated) | – | – | > 1 h | > 1 h
6 | CCCCCCCCCCCCCCNC(=O)[C@H](CCCCN)NCc1ccccc1 | 11.3 µM | 14.5 µM | – | –
7 | CCCCCCCCCCCCCCOCC(CNC(=O)[C@H](CCCCN)NCc1ccc(-c2ccccc2)cc1)OCCCCCCCCCCCCCC (some centres not stated) | 27.9 µM | 2.8 µM | – | –
8 | CCCCC/C=C\CCCCCCCOCC(CNC(=O)c1cccc(C2CCNCC2)c1)OCCCCCCC/C=C\CCCCC (configuration not stated) | 16.9 µM | 18.5 µM | – | –
9 | CCCCCCCCCCCCCCOCC(CNC(=O)CCCCCN)OCCCCCCCCCCCCCC (configuration not stated) | > 30 µM | > 20 µM | – | –
10 | CCCCCCCCCCCCCCOCC(CNC(=O)[C@H](CCCCN)NCc1ccc(F)cc1)OCCCCCCCCCCCCCC (some centres not stated) | > 30 µM | 2.9 µM | – | –
11 | CCCCC/C=C\C/C=C\CCCCCCCCOCC(CNC(=O)c1cccc(C2CCNCC2)c1)OCCCCCCCC/C=C\C/C=C\CCCCC (configuration not stated) | 16.1 µM | 3.3 µM | – | –

Continued, values first:

Row | IC50 (Toll-like receptor 2 [1]) | IC50 (Toll-like receptor 2 [2]) | Stabilty [3] | Stabilty [4] | SMILES
12 | > 30 µM | 2.6 µM | – | – | CCCCCCCCCCCCCCOCC(CNC(=O)C1(NC(=O)OCc2ccccc2)CCNCC1)OCCCCCCCCCCCCCC (configuration not stated)
13 | > 30 µM | 1.6 µM | – | – | CCCCCCCCCCCCCCOCC(CNC(=O)[C@H](CCCCN)NC(=O)OCC1c2ccccc2-c2ccccc21)OCCCCCCCCCCCCCC (some centres not stated)
14 | 13.7 µM | 22.6 µM | – | – | CCCCCCCOCCNC(=O)[C@H](CCCCN)NCc1ccccc1
15 | 16.7 µM | 1.8 µM | – | – | CCCCCCCCCCCCCCOCC(CNC(=O)C(CC1CCNCC1)NC(=O)OCC1c2ccccc2-c2ccccc21)OCCCCCCCCCCCCCC (configuration not stated)
16 | > 30 µM | > 30 µM | – | – | CCCCCCCOC(CNC(=O)[C@H](CCCCN)NCc1ccccc1)COC (some centres not stated)
